Data taken from patent US12559465B2, “Substituted benzotriazinone metabolites of a GPR139 agonist” (TAKEDA PHARMACEUTICAL COMPANY LIMITED, priority 2020, dated 2026).

Columns and labels:
Type in all cases: in vitro ADME
MRP2 [1] = biological target: MRP2 (Homo sapiens, UniProt Q92887); test: MRP2 inhibition in membrane vesicles (human)
Method: (§1) Inhibition of BSEP (dog and human) and MRP2 (dog and human) by Compound A and Compound B were tested in membrane vesicles.

BSEP [2] = biological target: T1, BSEP (Canis lupus familiaris, UniProt B8K1W2); test: BSEP inhibition in membrane vesicles (dog)
T1 sequence (B8K1W2 1-1325): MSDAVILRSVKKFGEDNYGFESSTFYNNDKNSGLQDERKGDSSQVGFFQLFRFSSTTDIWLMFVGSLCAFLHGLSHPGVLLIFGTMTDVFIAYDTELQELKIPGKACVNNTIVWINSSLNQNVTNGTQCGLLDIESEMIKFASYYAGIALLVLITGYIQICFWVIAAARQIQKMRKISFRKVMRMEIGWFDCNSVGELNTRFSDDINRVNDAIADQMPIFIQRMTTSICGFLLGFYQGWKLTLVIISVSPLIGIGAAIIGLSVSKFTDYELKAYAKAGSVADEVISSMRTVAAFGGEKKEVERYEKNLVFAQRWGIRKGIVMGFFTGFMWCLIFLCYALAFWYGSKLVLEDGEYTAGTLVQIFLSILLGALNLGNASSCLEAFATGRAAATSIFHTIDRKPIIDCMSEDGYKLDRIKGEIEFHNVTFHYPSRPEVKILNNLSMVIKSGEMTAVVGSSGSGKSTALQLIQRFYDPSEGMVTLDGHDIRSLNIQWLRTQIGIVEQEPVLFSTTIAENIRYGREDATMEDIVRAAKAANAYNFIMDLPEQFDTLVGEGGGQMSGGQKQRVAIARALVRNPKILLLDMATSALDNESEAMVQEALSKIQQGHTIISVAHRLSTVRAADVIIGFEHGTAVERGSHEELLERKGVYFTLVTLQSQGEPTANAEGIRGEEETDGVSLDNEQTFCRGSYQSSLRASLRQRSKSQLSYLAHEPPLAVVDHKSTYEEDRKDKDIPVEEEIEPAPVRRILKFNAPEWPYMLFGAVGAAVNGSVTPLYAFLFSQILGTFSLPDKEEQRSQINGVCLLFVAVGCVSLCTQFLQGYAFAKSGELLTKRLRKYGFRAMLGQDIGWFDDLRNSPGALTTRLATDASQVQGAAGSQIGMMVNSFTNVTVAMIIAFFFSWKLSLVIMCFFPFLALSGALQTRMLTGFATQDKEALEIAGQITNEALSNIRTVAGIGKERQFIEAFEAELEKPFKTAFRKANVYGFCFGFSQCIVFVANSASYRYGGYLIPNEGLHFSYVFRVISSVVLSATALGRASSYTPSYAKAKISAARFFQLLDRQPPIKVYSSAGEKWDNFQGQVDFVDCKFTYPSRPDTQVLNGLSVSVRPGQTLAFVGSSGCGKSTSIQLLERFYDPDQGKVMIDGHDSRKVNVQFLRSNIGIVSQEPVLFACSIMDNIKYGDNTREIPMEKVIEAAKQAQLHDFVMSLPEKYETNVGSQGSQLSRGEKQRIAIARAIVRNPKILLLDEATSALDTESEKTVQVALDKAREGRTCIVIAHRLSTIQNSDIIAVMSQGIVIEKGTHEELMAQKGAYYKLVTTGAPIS
Method: as §1

MRP2 [3] = biological target: MRP2 (Canis lupus familiaris, UniProt A0A8I3SCV5); test: MRP2 inhibition in membrane vesicles (dog)
MRP2 (Canis lupus familiaris, UniProt A0A8I3SCV5), sequence (A0A8I3SCV5 1-1544): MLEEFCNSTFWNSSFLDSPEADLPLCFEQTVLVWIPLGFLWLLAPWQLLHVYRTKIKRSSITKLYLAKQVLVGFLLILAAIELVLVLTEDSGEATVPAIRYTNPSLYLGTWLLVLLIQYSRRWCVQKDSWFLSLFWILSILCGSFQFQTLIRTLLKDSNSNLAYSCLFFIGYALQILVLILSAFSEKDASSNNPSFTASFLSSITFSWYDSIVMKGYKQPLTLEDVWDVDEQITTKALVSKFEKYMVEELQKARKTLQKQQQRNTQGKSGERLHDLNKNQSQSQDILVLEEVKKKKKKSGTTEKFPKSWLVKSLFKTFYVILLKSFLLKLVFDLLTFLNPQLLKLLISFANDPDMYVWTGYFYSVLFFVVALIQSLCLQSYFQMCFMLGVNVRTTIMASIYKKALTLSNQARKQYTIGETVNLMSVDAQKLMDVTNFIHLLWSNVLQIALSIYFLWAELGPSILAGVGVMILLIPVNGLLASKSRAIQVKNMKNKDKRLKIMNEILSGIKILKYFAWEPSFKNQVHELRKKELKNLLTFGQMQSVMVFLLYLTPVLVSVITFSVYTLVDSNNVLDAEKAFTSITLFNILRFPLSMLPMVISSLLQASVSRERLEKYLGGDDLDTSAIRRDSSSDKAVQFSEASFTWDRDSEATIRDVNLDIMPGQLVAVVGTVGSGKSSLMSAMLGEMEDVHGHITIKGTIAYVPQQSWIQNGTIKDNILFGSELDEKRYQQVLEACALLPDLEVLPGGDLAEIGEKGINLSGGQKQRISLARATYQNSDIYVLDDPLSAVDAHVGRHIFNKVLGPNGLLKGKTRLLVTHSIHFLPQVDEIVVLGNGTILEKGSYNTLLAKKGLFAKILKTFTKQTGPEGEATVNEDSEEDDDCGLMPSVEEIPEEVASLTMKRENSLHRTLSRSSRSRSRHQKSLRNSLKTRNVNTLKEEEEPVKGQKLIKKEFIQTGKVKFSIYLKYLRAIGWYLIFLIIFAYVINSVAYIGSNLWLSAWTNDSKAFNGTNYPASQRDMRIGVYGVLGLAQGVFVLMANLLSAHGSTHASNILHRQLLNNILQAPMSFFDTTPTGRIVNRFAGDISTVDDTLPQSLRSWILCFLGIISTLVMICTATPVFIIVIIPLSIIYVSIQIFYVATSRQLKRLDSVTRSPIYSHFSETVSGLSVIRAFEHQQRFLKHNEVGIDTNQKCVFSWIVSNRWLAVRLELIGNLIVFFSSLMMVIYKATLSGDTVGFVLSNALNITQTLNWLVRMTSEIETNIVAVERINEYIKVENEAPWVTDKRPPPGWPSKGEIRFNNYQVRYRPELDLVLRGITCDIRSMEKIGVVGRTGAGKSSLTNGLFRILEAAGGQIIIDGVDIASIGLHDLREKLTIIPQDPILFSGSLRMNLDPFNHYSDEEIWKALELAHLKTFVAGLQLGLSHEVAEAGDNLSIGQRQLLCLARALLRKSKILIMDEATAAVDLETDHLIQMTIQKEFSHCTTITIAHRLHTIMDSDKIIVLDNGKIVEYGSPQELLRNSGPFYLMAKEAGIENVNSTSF
Method: as §1

BSEP [4] = biological target: BSEP (Homo sapiens, UniProt O95342); test: BSEP inhibition in membrane vesicles (human)
BSEP (Homo sapiens, UniProt O95342), sequence (O95342 whole entry): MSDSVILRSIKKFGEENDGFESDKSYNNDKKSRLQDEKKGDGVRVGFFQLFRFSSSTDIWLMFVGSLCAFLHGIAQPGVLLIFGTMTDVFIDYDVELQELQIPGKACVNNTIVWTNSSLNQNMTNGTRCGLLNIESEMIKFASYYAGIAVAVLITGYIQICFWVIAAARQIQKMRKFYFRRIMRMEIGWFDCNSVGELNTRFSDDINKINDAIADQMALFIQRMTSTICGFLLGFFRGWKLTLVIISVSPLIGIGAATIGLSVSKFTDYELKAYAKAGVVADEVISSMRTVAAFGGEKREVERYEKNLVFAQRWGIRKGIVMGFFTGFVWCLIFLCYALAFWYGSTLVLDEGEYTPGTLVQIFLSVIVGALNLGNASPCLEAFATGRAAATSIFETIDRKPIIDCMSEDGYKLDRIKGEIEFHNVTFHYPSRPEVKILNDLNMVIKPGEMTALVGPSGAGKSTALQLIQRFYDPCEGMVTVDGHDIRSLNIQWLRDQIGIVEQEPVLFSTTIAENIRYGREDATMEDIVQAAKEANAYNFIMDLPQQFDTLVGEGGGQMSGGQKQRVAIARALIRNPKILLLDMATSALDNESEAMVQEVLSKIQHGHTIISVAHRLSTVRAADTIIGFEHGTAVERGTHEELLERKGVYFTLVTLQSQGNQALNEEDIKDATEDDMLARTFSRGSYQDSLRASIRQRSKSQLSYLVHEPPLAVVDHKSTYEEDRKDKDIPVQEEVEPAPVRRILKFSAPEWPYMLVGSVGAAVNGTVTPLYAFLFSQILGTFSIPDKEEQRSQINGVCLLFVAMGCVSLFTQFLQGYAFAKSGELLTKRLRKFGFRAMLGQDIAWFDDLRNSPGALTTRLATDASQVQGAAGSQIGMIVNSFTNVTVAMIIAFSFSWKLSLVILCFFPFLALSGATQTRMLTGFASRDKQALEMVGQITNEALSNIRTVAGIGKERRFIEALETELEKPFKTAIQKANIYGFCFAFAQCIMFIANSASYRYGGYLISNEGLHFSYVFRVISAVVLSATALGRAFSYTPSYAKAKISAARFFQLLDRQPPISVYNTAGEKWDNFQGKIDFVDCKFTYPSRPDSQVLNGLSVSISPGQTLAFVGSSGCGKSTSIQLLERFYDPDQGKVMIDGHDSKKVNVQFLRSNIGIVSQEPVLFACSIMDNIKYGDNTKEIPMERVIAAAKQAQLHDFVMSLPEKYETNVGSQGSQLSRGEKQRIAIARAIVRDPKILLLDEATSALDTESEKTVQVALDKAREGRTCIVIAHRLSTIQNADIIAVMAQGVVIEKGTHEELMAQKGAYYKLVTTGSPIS
Method: as §1

BSEP [5] = biological target: T2, BSEP (Rattus norvegicus, UniProt O70127); test: BSEP inhibition in membrane vesicles (rat)
T2 sequence (O70127 1-1321): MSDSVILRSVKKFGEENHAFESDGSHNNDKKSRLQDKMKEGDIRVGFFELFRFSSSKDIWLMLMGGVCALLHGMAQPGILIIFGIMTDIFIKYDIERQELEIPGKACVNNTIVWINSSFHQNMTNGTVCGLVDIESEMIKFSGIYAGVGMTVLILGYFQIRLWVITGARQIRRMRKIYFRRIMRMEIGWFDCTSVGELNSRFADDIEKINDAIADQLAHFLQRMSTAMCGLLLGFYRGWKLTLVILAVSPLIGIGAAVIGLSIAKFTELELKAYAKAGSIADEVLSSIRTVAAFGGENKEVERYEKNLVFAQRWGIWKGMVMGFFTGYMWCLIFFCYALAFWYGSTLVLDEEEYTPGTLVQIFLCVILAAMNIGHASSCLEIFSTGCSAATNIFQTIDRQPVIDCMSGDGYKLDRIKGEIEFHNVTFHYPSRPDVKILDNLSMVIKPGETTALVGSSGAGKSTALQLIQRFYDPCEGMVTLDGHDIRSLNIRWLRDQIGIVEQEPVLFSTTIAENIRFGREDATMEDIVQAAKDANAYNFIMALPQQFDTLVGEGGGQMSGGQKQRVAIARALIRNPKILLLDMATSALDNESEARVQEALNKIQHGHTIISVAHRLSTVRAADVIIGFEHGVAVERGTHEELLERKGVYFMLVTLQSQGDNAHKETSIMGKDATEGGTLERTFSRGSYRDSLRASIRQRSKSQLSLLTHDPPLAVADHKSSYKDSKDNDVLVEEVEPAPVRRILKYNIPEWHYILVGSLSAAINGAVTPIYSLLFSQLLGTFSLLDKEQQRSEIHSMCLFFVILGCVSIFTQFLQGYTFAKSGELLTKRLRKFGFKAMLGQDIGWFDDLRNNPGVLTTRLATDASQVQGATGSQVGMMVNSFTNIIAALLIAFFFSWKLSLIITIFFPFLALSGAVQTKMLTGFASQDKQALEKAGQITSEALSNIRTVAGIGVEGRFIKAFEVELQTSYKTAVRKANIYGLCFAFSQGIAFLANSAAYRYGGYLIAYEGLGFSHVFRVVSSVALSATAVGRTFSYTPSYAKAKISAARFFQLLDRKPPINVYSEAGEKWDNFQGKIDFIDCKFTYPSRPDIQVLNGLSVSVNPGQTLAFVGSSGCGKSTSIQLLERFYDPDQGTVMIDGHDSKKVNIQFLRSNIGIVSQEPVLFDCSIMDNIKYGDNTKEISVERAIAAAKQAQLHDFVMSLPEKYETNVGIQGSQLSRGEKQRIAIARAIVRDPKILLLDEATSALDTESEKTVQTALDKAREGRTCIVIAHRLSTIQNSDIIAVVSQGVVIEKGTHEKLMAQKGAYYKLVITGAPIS

MRP4 = biological target: T3, MRP4 (Homo sapiens, UniProt O15439); test: MRP4 inhibition (human)
T3 sequence (O15439 1-1325): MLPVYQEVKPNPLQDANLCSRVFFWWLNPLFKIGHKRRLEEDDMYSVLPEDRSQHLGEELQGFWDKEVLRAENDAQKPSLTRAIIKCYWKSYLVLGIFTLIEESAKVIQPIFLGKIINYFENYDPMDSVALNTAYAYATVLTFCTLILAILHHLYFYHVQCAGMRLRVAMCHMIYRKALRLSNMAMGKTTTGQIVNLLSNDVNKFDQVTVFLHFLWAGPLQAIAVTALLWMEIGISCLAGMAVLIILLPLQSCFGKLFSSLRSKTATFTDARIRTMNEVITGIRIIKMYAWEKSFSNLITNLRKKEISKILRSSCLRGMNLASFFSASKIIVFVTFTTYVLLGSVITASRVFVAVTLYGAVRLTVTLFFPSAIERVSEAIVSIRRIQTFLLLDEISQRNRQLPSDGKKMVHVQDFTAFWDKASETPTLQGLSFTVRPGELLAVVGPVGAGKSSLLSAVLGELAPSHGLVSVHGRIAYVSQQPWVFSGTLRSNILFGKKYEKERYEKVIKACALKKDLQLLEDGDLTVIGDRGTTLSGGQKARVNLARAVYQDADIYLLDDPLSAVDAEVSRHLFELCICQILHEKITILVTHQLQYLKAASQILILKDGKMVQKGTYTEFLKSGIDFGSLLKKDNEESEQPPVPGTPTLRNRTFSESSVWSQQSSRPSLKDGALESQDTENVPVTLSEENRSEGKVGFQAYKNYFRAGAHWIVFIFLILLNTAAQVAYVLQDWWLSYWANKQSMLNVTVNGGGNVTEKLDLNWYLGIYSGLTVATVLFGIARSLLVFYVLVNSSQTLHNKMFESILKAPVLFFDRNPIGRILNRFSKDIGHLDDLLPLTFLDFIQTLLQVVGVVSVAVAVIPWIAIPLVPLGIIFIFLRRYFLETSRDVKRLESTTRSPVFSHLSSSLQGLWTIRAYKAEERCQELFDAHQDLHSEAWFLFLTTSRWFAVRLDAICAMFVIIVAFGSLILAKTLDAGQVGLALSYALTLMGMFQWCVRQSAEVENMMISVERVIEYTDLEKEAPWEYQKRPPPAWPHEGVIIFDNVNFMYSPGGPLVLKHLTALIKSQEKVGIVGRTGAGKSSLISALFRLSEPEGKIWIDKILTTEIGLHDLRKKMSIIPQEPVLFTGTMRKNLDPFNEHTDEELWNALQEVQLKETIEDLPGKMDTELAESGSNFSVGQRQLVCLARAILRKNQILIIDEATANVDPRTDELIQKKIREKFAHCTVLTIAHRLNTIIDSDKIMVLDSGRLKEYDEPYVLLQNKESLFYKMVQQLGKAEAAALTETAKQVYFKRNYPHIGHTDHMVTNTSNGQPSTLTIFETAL

MRP2 [6] = biological target: MRP2 (Rattus norvegicus, UniProt Q63120); test: MRP2 inhibition in membrane vesicles (rat)
MRP3 = MRP3 (Homo sapiens, UniProt O15438); test: MRP3 inhibition (human)

MRP2 (Homo sapiens, UniProt Q92887), sequence (Q92887 whole entry): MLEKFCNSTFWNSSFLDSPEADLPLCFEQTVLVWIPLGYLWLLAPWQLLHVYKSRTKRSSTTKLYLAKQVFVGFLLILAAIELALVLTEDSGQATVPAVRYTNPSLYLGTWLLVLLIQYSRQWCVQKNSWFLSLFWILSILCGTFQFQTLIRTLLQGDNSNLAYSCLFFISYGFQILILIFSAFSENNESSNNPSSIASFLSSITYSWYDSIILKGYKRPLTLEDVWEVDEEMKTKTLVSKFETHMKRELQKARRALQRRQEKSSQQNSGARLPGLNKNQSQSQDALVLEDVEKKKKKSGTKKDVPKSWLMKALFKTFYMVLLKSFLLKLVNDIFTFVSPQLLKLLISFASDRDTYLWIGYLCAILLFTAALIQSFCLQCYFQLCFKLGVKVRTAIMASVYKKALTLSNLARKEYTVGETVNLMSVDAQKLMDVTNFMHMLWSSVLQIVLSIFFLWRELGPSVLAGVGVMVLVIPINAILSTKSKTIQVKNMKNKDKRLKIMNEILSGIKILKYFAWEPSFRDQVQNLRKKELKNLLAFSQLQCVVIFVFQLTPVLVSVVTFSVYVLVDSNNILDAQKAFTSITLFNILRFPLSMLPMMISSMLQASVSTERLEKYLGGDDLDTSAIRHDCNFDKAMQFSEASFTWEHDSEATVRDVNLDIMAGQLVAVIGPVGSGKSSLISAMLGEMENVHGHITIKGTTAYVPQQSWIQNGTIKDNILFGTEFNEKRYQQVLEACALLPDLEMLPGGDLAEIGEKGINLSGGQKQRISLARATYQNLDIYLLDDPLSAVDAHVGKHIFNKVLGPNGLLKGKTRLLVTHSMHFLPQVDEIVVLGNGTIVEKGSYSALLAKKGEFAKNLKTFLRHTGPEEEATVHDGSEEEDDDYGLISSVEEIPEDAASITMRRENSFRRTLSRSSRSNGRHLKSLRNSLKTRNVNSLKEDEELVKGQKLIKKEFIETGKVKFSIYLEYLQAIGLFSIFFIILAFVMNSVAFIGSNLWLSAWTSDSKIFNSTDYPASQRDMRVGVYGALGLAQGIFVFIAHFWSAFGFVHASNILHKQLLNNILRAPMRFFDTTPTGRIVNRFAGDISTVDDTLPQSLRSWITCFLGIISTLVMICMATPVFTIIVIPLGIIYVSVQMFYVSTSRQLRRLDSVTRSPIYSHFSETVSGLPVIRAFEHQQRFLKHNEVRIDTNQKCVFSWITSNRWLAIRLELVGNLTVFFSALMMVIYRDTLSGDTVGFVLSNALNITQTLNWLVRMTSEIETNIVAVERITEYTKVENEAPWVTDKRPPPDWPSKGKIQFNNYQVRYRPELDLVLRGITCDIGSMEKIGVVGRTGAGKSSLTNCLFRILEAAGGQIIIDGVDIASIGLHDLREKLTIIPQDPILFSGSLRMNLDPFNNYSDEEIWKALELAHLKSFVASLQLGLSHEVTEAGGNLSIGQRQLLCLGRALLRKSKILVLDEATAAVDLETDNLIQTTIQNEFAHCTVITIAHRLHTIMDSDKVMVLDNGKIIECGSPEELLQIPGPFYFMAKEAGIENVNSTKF

**Q.** Which IC50 (MRP2 [1]) does the source give for C[C@H](NC(=O)Cn1nnc2ccc(O[C@@H]3O[C@H](C(=O)O)[C@@H](O)[C@H](O)[C@H]3O)cc2c1=O)c1ccc(OC(F)(F)F)cc1 [Compound B, (2S,3S,4S,5R,6S)-3,4,5-trihydroxy-6-((4-oxo-3-(2-oxo-2-(((S)-1-(4-(trifluoromethoxy)phenyl)ethyl)amino)ethyl)-3,4-dihydrobenzo[d][1,2,3]triazin-6-yl)oxy)tetrahydro-2H-pyran-2-carboxylic acid] here?
**A.** The IC50 was 83 µM.

**Q.** What about the IC50 (BSEP [2]) of the same compound?
**A.** The IC50 was greater than 200 µM.

**Q.** And the BSEP inhibition (BSEP [2]; result in words)?
**A.** Its BSEP inhibition is “not identified”.

**Q.** And the IC50 (MRP2 [3])?
**A.** The IC50 was 1.8 µM.

**Q.** And the IC50 (BSEP [4])?
**A.** Its IC50 is greater than 200 µM.

**Q.** What about the BSEP inhibition (BSEP [4]; result in words) of the same compound?
**A.** Its BSEP inhibition is “not identified”.

**Q.** Which results are given for C[C@H](NC(=O)Cn1nnc2ccccc2c1=O)c1ccc(OC(F)(F)F)cc1 [Compound A, (S)-2-(4-oxobenzo[d][1,2,3]triazin-3(4H)-yl)-N-(1-(4-(trifluoromethoxy)phenyl)ethyl)acetamide]?
**A.** IC50 (MRP2 [1]): > 200 µM; IC50 (BSEP [2]): 72.3 µM; IC50 (BSEP [5]): > 200 µM; IC50 (MRP2 [3]): > 200 µM; IC50 (MRP4): > 200 µM; IC50 (MRP2 [6]): > 200 µM; IC50 (MRP3): > 200 µM; IC50 (BSEP [4]): > 200 µM
